Measurements published in PMC1570497, “HIV-2 Protease resistance defined in yeast cells” (Retrovirology, 2006).
Where a chain is given by its changes, count along the chain named. Several values for one entry are separate records, joined by “and”; a condition that tells them apart may be missing. Equal values may be shown once.

Key:
[1] = biological target: T1, HIV-2ROD Protease L99F (Human immunodeficiency virus type 2 subtype A, UniProt P04584, L612F); experiment: cell-based; details: for IC50mutant/IC50ROD: L99F
T1 construct: contains a Phe codon at position 99 of the HIV-2 Protease, followed by a stop codon; initiator Met (start codon of primer Fwd) (N); expressed in transfected cells; host or cells: Saccharomyces cerevisiae BY4741, pRS316GAL1/10
T1 sequence (P04584 514-612 L612F): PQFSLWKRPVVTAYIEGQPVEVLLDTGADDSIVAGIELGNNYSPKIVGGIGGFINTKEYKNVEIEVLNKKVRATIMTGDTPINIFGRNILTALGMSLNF

[2] = biological target: HIV-2 Protease MRT-25 (Human immunodeficiency virus type 2, UniProt P04584, cells depend on it, form not given); experiment: yeast growth rescue assay, Protease from infected individual; details: for Phenotype (transformed yeast) (% cell growth) / IC50: MRT-25 Protease; for IC50: yeast
[3] = tested on: HIV-2 V20A, I54M; set-up: method as in PMID 16464891; key: resistant (R); sensitive (S); details: cited from earlier work
[4] = tested on: Protease from HIV-2ROD; set-up: method as in PMID 16464891, PMID 16327332; details: read-out: IC50 already reported in the literature; cited from earlier work
[5] = biological target: HIV-2 Protease MRT-7 (Human immunodeficiency virus type 2, UniProt P04584, cells depend on it, form not given); experiment: yeast growth rescue assay, Protease from infected individual; details: for Phenotype (transformed yeast) (% cell growth) / IC50: MRT-7 Protease; for IC50: yeast
[6] = biological target: HIV-2 Protease MRT-1 (Human immunodeficiency virus type 2, UniProt P04584, cells depend on it, form not given); experiment: as above; details: for Phenotype (transformed yeast) (% cell growth) / IC50: MRT-1 Protease; for IC50: yeast
[7] = biological target: HIV-2 Protease MRT-20 (Human immunodeficiency virus type 2, UniProt P04584, cells depend on it, form not given); experiment: as above; assay type: cell-based; details: for Phenotype (transformed yeast) (% cell growth) / IC50: MRT-20 Protease; for IC50isolate/IC50ROD: MRT-20; for IC50: yeast
[8] = tested on: HIV-2ROD wild type; set-up: method as in previously published data; key: resistant (R); sensitive (S); details: ref previously published data; cited from earlier work
[9] = biological target: HIV-2 Protease MRT-22 (Human immunodeficiency virus type 2, UniProt P04584, cells depend on it, form not given); experiment: yeast growth rescue assay, Protease from infected individual; details: for Phenotype (transformed yeast) (% cell growth) / IC50: MRT-22 Protease; for IC50isolate/IC50ROD: MRT-22; for IC50: yeast
[10] = tested on: HIV-2 K45R; set-up: method as in PMID 16464891; key: resistant (R); sensitive (S); details: cited from earlier work
[11] = biological target: T2, HIV-2ROD Protease (wild type) (Human immunodeficiency virus type 2 subtype A, UniProt P04584); experiment: yeast growth rescue assay, HIV-2ROD Protease expressed in BY4741 yeast; assay type: cell-based; details: for Phenotype (transformed yeast) (% cell growth): galactose, wild type ROD Protease; for Phenotype (transformed yeast) (% cell growth) / IC50: 48 h; for IC50isolate/IC50ROD: ROD (reference); for IC50: ROD Protease
T2 construct: initiator Met (added ATG start codon) (N); expressed in transfected cells; host or cells: Saccharomyces cerevisiae BY4741, pRS316Gal1/10-HIV2PR (galactose-inducible)

[12] = biological target: HIV-2 Protease MRT-8 (Human immunodeficiency virus 2, UniProt P04584, L603M, cells depend on it, form not given); experiment: yeast growth rescue assay, Protease from infected individual; details: for Phenotype (transformed yeast) (% cell growth) / IC50: MRT-8 Protease; for IC50: yeast
[13] = biological target: HIV-2 Protease MRT-29 (Human immunodeficiency virus type 2, UniProt P04584, cells depend on it, form not given); experiment: as above; details: for Phenotype (transformed yeast) (% cell growth) / IC50: MRT-29 Protease; for IC50isolate/IC50ROD: MRT-29; for IC50: yeast
[14] = biological target: T3, HIV-2ROD Protease (Human immunodeficiency virus type 2 subtype A, UniProt P04584); assay type: cell-based
T3 construct: initiator Met (added ATG start codon) (N); expressed in transfected cells; host or cells: Saccharomyces cerevisiae BY4741, pRS316Gal1/10-HIV2PR (galactose-inducible)

[15] = biological target: T4, HIV-2ROD Protease L90M (Human immunodeficiency virus type 2 subtype A, UniProt P04584, L603M); experiment: cell-based; assay type: cell-based; details: for IC50mutant/IC50ROD: L90M
T4 sequence (P04584 514-612 L603M): T1 sequence (P04584 514-612 L612F) with L90M, F99L

[16] = tested on: HIV-2 M76V; set-up: key: resistant (R); sensitive (S); details: cited from earlier work

Sequence of HIV-2 Protease MRT-8 (P04584 514-612 L603M): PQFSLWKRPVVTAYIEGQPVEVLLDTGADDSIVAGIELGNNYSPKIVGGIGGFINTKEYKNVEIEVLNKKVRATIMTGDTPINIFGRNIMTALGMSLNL
T2 sequence (P04584 514-612 limits assumed): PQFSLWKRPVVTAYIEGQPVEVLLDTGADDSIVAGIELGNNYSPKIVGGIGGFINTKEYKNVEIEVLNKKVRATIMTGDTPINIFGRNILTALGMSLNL
Sequence of HIV-2 Protease MRT-20 (P04584 514-612 limits assumed, change not shown): as the sequence (P04584 514-612 limits assumed) above
Sequence of HIV-2 Protease MRT-1 (P04584 514-612 limits assumed, change not shown): as the sequence (P04584 514-612 limits assumed) above
Sequence of HIV-2 Protease MRT-29 (P04584 514-612 limits assumed, change not shown): as the sequence (P04584 514-612 limits assumed) above
Sequence of HIV-2 Protease MRT-22 (P04584 514-612 limits assumed, stated change not applied): as the sequence (P04584 514-612 limits assumed) above
Sequence of HIV-2 Protease MRT-7 (P04584 514-612 limits assumed, change not shown): as the sequence (P04584 514-612 limits assumed) above
Sequence of HIV-2 Protease MRT-25 (P04584 514-612 limits assumed, stated change not applied): as the sequence (P04584 514-612 limits assumed) above
T3 sequence (P04584 514-612 limits assumed): as above

SMILES | IC50 [1] [µM] | IC50mutant/IC50ROD [1] | IC50 [2] [µM] | Phenotype (virus production) [3] | IC50 [4] [µM] | IC50 [5] [µM] | IC50 [6] [µM] | IC50isolate/IC50ROD [7] | IC50 [7] [µM] | Phenotype (virus production) [8] | IC50isolate/IC50ROD [9] | IC50 [9] [µM] | Phenotype (virus production) [10] | IC50isolate/IC50ROD [11] | IC50 [11] [µM] | IC50 [12] [µM] | IC50isolate/IC50ROD [13] | IC50 [13] [µM] | IC50 [15] [µM] | IC50mutant/IC50ROD [15] | other results
Cc1cccc(C)c1OCC(=O)N[C@@H](Cc1ccccc1)[C@@H](O)C[C@H](Cc1ccccc1)NC(=O)[C@H](C(C)C)N1CCCNC1=O [LPV, Lopinavir] | 11.1 ± 3.1 | 0.67 | 19.9 ± 4.6 | R [9] | 0.027 | 10.8 ± 5 | 48 ± 3.2 | 1.40 | 23.2 ± 4.4 | S | 0.91 | 15.1 ± 4.3 | R [9] | 1.00 | 16.6 ± 2.5 | 12.5 ± 1.5 | 0.84 | 13.9 ± 5.5 | 12.5 ± 8.1 | 0.75 | Phenotype (transformed yeast) (% cell growth) ([2]; LPV at 150 μM): 100.0+/-2.0%; IC50isolate/IC50ROD ([2]; MRT-25): 1.20; Phenotype (transformed yeast) (% cell growth) ([5]; LPV at 150 μM): 100.0+/-4.7%; Phenotype (transformed yeast) (% cell growth) ([6]; LPV at 150 μM): 50.0+/-3.0%; Phenotype (transformed yeast) (% cell growth) ([7]; LPV at 150 μM): 71.5+/-1.2%; Phenotype (transformed yeast) (% cell growth) ([9]; LPV at 150 μM): 98.5+/-1.0%; Phenotype (transformed yeast) (% cell growth) ([11]; LPV at 150 μM): 91.5% and 91.5+/-1.2%; Phenotype (transformed yeast) (% cell growth) ([12]; LPV at 150 μM): 82.0+/-7.5%; Phenotype (transformed yeast) (% cell growth) ([13]; LPV at 150 μM): 93.0+/-2.0%; growth in galactose ([14]; 60 μM LPV): grew in galactose
CC(C)(C)NC(=O)[C@@H]1C[C@@H]2CCCC[C@@H]2CN1C[C@@H](O)[C@H](Cc1ccccc1)NC(=O)[C@H](CC(N)=O)NC(=O)c1ccc2ccccc2n1 [SQV, Saquinavir] | 147 ± 5.1 | 0.98 | 48.5 ± 4.7 | R [9] | 0.011 | 68.9 ± 6.2 | 200 ± 5.1 | 0.79 | 118 ± 6.3 | S | 0.70 | 105 ± 7.1 | R [9] | 1.00 | 150 ± 7.2 | 553.9 ± 4.2 | 1.02 | 153 ± 3 | 554.1 ± 3.9 | 3.7 | Phenotype (transformed yeast) (% cell growth) ([2]; SQV at 1mM): 100.0+/-9.4%; IC50isolate/IC50ROD ([5]; MRT-7): 0.46; Phenotype (transformed yeast) (% cell growth) ([5]; SQV at 1mM): 98.0+/-6%; IC50isolate/IC50ROD ([6]; MRT-1): 1.34; Phenotype (transformed yeast) (% cell growth) ([6]; SQV at 1mM): 71.0+/-5%; Phenotype (virus production) [16]: R [10]; Phenotype (transformed yeast) (% cell growth) ([7]; SQV at 1mM): 78.0+/-3.0%; Phenotype (transformed yeast) (% cell growth) ([9]; SQV at 1mM): 82.0+/-7.1%; Phenotype (transformed yeast) (% cell growth) ([11]; SQV at 1mM): 75% and 75.0+/-7.0%; IC50isolate/IC50ROD ([12]; MRT-8): 4.2 and 4.23; Phenotype (transformed yeast) (% cell growth) ([12]; SQV at 1mM, 1000 µM): 55% and 55.0+/-6.3%; Phenotype (transformed yeast) (% cell growth) ([13]; SQV at 1mM): 72.0+/-3.0%; growth on galactose plates (lethal phenotype) ([14]; SQV at 200 μM, 2 days at 30°C): the lethal phenotype was no longer observed
